Literature values in patent US20110160274A1 (PANACEA BIOTEC LIMITED, priority 2008, published 2011).

Details: after oral administration of fenofibrate

CC(C)(Oc1ccc(C(=O)c2ccc(Cl)cc2)cc1)C(=O)O [fenofibric acid]
plasma elimination half life: about 20 hours
